For assay [1], the target named is mGluR5 (Homo sapiens (Human), UniProt P41594). Put plainly: In vitro activity test for mGluR5, HDB Fluo-8 calcium fluorescence detection (FLIPR). Conditions: HEK293/mGluR5 cell line. In kind it is cell-based. From the text:
Experimental instrument: FLIPR Tetra real-time fluorescence imaging analysis system
Experimental method: HDB Fluo-8 calcium fluorescence detection method
Experimental principle: HDB Fluo-8 calcium ion fluorescence detection method is a fast, simple and reliable fluorescence detection method of intracellular calcium concentration changes. The Fluo 8-AM fluorescent dye is an […] derivative of Fluo 8 which can easily penetrate the cell membrane into the cell by culture. The fluorescent dye into the cell will be hydrolyzed by intracellular esterase, the resulting Fluo 8 cannot easily pass through the lipid bimolecular membrane as a polar molecule, and will retain in the cell, and combine with calcium (Ca^2+) to produce fluoresces.
Cells expressing GPCR receptor protein (mGluR5) were first calibrated with a calcium ion sensitive fluorescent probe and then stimulated with the compound. After stimulation, the activation of the receptor lead to the calcium ion mobilization, and the fluorescent probe captures the calcium ion to induce the fluorescence signal. The signal can be read by a fluorescent plate reader. The fluorescent plate reader contains a sampling head for compound addition, thus enabling the change of the fluorescence value of the compound be read in real time. […]

The target in assay [2] is mGluR1 (Homo sapiens (Human), UniProt Q13255). Put plainly: mGluR5/1 selectivity test, HEK293/mGluR1 cell line, Fluo-8 calcium. The assay is classed as cell-based. Conditions: for IC50: HEK293/mGluR1 cell line; for mGluR5/mGluR1: selectivity ratio of IC50 values. From the text: Experimental material: HEK293/mGluR5 cell line, HEK293/mGluR1 cell line, Fluo-8 calcium ion fluorescent dye, positive control JNJ16259685

Assay [3] has as its system ICR mice. Put plainly: Mouse forced swimming experiment. The assay is classed as in vivo. Conditions: positive control, 10 mg/kg intraperitoneal, later 4 min of 6 min. As for the experimental part:
Experimental principle: The principle of Mouse Forced Swimming Test (FST) is to allow the mouse to swim in a limited space from which it can not escape, thus inducing animal to non-movement state which reflects the animal's desperate behavior.
Experimental animals: ICR mice, 20-28 g, both male and female
Sample treatment: The test compounds were ground with 1% CMC (sodium carboxymethyl cellulose) aqueous solution to prepare a homogeneous solution. In vivo dose was 5 mg/kg, 10 mg/kg and 20 mg/kg, the compound was oral administered at 0.1 ml/10 g volume/body weight. Positive control drugs (amitriptyline and fluoxetine) were dissolved with 0.9% saline, in vivo dose was 10 mg/kg, administered by intraperitoneal injection at 0.1 ml/10 g volume/body weight. (Note: the mice were fasted for 8 h and drinked water ad libitum before the compound was given.)
Experimental Methods: mice were grouped randomly. […] On the second day of the test, the mice were orally administered the compound. After 1 hour (0.5 hours after intraperitoneal injection), the mice were then put in water to record the immobility time in the later 4 min of 6 min.

The subject of assay [4] is mice. Put plainly: Mouse tail suspension experiment. Conditions: positive control, FIG. 1. The assay is classed as in vivo. From the text:
Experimental principle: Tail Suspension Test (TST) is a classic method which can quickly evaluate the efficacy of antidepressant drugs, excitement drugs, and sedative drugs. The principle is to use the status that the mouse give up struggle and enter the unique depression status after the tail was suspended and the attempt to escape was failed.
Experimental method: 20-24 g male mice were selected and the site at 2 cm part from the end of the tail was attached to a horizontal stick, so that the animal entered inverted state, and it's head was about 5 cm from the table, and boards were hung on both sides to separate the animal's sight. The immobility time of the administration group and the control group within 6 min were compared.

Assay [5] relates to mice. Nature of the assay: Head twitches test (5-HTP induced). In kind it is in vivo. Conditions: positive control, FIG. 2. From the text:
Experimental principle: Model Head Thrust Test (HTT) is first raised by Corne et al. in 1963, head twitches syndrome caused by 5-HT receptor excitement may be mediated through the 5-HT2 receptor. The head twitches behavior induced by 5-HTP in mice is more sensitive to antidepressants with different action mechanisms, such as citalopram, fluvoxamine and other 5-HT retake inhibitors, desipramine, maprotiline, nomifensine and other NA retake inhibitors and imipramine acting on both 5-HT and NA system.
Experimental method: 20-24 g male mice were selected. 3 h before the test, 100 mg/kg pargyline was intraperitoneal injected and then intraperitoneal injected with test drugs or saline. 5-HTP (5 mg/kg, ip) was injected 30 min later. After 10 min, the observation was started and the number of mice head twitches in 6 min was recorded. The numbers of the head twitches of experimental group and the saline control group were compared.

Sequence of mGluR5 (P41594 21-1212): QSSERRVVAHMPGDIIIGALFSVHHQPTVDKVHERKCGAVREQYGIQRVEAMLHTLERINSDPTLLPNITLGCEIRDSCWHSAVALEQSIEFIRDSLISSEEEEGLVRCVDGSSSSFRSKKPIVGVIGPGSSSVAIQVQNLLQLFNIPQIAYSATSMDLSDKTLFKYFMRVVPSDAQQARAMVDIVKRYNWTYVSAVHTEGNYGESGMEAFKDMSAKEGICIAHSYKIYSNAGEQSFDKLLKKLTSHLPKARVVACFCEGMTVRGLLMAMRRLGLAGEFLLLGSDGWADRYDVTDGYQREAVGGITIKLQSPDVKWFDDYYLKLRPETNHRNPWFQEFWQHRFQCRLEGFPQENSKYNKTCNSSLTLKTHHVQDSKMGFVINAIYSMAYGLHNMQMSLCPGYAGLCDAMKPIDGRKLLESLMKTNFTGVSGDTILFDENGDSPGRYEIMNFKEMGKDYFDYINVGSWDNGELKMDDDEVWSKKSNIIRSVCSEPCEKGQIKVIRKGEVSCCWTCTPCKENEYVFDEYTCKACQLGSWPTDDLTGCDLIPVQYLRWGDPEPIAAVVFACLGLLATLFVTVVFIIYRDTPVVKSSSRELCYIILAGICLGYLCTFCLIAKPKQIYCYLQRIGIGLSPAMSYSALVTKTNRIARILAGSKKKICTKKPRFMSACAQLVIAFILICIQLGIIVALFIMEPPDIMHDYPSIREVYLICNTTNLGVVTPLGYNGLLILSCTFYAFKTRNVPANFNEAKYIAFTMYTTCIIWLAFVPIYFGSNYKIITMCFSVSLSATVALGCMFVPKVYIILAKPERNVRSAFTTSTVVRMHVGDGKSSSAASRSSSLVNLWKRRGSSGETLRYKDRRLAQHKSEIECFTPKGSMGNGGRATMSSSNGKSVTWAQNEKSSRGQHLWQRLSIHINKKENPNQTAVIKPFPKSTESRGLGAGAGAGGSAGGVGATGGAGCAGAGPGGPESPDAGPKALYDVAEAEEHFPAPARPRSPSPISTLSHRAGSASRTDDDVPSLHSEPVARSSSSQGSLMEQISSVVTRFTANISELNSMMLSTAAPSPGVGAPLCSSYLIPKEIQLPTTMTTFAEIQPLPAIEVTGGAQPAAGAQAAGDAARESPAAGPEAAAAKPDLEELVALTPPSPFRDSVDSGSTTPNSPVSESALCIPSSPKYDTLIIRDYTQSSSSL
Sequence of mGluR1 (Q13255 19-1194): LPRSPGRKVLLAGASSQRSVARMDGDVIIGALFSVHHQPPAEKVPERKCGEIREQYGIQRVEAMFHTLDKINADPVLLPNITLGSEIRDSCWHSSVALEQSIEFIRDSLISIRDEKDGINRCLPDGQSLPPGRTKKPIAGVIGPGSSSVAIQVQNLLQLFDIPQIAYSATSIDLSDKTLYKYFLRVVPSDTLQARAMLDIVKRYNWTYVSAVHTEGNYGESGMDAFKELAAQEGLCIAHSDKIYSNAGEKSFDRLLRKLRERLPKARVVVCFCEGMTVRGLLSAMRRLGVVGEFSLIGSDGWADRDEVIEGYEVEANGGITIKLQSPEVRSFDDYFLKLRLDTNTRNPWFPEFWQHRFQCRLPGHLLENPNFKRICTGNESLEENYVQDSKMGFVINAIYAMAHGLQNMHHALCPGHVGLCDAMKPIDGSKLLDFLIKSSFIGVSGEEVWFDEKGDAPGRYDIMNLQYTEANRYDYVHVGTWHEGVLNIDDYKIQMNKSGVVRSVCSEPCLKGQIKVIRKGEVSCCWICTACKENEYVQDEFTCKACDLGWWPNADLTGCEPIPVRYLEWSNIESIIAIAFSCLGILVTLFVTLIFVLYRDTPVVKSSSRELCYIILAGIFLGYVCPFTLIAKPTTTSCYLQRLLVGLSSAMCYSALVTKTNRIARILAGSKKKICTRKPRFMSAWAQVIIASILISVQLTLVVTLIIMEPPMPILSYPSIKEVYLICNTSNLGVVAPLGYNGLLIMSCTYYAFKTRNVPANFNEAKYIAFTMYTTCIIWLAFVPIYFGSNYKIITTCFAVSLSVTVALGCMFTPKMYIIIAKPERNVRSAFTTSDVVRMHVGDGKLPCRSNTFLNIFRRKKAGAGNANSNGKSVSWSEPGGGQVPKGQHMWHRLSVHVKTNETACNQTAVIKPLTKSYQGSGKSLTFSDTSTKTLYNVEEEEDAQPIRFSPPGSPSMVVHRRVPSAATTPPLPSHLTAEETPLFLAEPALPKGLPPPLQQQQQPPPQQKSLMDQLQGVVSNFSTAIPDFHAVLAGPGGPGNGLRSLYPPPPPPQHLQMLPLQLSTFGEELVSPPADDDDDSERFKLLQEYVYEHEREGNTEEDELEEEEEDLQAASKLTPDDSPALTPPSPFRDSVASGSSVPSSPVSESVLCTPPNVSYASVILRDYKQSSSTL

In the case of `N#Cc1ccc(NC(=O)c2cc(C#Cc3ccccn3)ccc2F)cc1` [ZD044, N-(4-cyanophenyl)-2-fluoro-5-(pyridin-2-ethynyl)benzamide], the IC50 in assay [1] is 86.5 nM.

For `Cc1nc(C#Cc2ccc(F)c(C(=O)N3CCc4ccccc4C3C)c2)cs1` (stereo not shown) [ZD049, (2-fluoro-5-((2-methyl-thiazol-4-yl)ethynyl)phenyl)(1-methyl-3,4-dihydro-isoquinolin-2(1H)-yl)methanone], the values for the IC50 in assay [2] and in assay [1] were > 100000 nM and 38 nM, respectively. For the same compound, the mGluR5/mGluR1 in assay [2] is recorded as >2632.

As for `Cc1nc(C#Cc2cccc(C(=O)Nc3ccc(C#N)cc3)c2)cs1` [ZD010, N-(4-cyanophenyl)-3-((2-methylthiazol-4-yl)ethynyl)benzamide], the IC50 in assay [1] is 86.6 nM.

On to `Cc1ccc(C#Cc2ccccn2)cc1C(=O)Nc1ccc(F)cc1` [ZD040, N-(4-fluorophenyl)-2-methyl-5-(pyridin-2-ethynyl)benzamide], for which the half-maximal inhibitory concentration (IC50) in assay [1] was 104 nM.

On to `Cc1nc(C#Cc2ccc(Cl)c(C(=O)Nc3ccc(F)cc3)c2)cs1` [ZD037, 2-chloro-N-(4-fluorophenyl)-5-((2-methyl-thiazol-4-yl)ethynyl)benzamide], for which, in assay [2], the IC50 is > 100000 nM and the mGluR5/mGluR1 is recorded as >13676. Besides, in assay [1], the IC50 was 7.31 nM.

Turning to `Cc1nc(C#Cc2cccc(C(=O)Nc3ccccc3)c2)cs1` [ZD014], in assay [2], the IC50 was > 100000 nM and the mGluR5/mGluR1 is >6757. The IC50 in assay [1] is 14.8 nM.

Take `CNCCC(Oc1ccc(C(F)(F)F)cc1)c1ccccc1` (stereo not shown) [Fluoxetine, fluoxetine, reference compound]: in assay [3], the “immobility time (%) Mean ± SEM” value stood at 84.79 ± 12.73%. The “immobility time in the mouse tail suspension test” value in assay [4] is “significantly improve”. Moreover, the “number of head twitches” value in assay [5] is given as “significantly improve”.

As for `O=C(c1cc(C#Cc2ccccn2)ccc1F)N1CCc2ccccc2C1` [ZD046, (3,4-dihydro-isoquinolin-2(1H)-yl)(2-fluoro-5-(pyridin-2-ylethynyl)phenyl) methanone], in assay [2], the IC50 was > 100000 nM and the mGluR5/mGluR1 is on record as >6601. The IC50 in assay [1] was 15.2 nM.

On to `O=C(Nc1ccc(F)cc1)c1cc(C#Cc2ccccn2)ccc1Cl` [ZD036, 2-chloro-N-(4-fluorophenyl)-5-(pyridin-2-ethynyl)benzamide], for which, in assay [2], the IC50 was > 100000 nM and the mGluR5/mGluR1 was >4929. Also, the IC50 in assay [1] was 20.3 nM.

For `O=C(Nc1ccc(F)cc1)c1cc(C#Cc2ccncc2)ccc1F` [ZD039, 2-fluoro-N-(4-fluorophenyl)-5-(pyridin-4-ethynyl)benzamide], the IC50 in assay [1] is 382 nM.

As to `Cc1nc(C#Cc2cccc(C(=O)Nc3cccc(C#N)c3)c2)cs1` [ZD019, N-(3-cyanophenyl)-3-((2-methylthiazol-4-yl)ethynyl)benzamide], in assay [1], the IC50 is 134 nM.

`Cc1nc(C#Cc2ccc(F)c(C(=O)Nc3ccc(C#N)cc3)c2)cs1` [ZD045, N-(4-cyanophenyl)2-fluoro-5-((2-methyl-thiazol-4-yl)ethynyl)benzamide]: the IC50 in assay [1] turned out to be 53.5 nM.

As to `CN(C)CCC=C1c2ccccc2CCc2ccccc21` [amitriptyline, reference compound], the “immobility time (%) Mean ± SEM” value in assay [3] was “significantly improve”; in assay [3] (listed as CCAmitriptyline), 15.34 ± 5.96 %.

For `CC1c2ccccc2CCN1C(=O)c1cc(C#Cc2ccccn2)ccc1F` (stereo not shown) [ZD048, (2-fluoro-5-(pyridin-2-ylethynyl)phenyl) (1-methyl-3,4-dihydro-isoquinolin-2(1H)-yl)methanone], in assay [1], the half-inhibitory concentration (IC50) amounted to 71.3 nM.

With `O=C(Nc1ccc(F)cc1)c1cc(C#Cc2ccccn2)ccc1F` [ZD001, 2-fluoro-5-(pyridin-2-ethynyl)-N-(4-fluorophenyl)benzamide], the IC50 in assay [2] was > 100000 nM; in assay [1] it was 13.9 nM. Besides, the mGluR5/mGluR1 in assay [2] is >7194.

As to `Cc1nc(C#Cc2ccc(F)c(C(=O)N3CCc4ccccc4C3)c2)cs1` [ZD047, (3,4-dihydro-isoquinolin-2(1H)-yl)(2-fluoro-5-((2-methyl-thiazol-4-yl)ethynyl)phenyl)methanone], in assay [2], the IC50 was > 100000 nM and the mGluR5/mGluR1 is >15044. Further, the IC50 in assay [1] stood at 6.65 nM.

In the case of `Cc1nc(C#Cc2cccc(C(=O)Nc3cccc(F)c3)c2)cs1` [ZD017, N-(3-fluorophenyl)-3-((2-methylthiazol-4-yl)ethynyl)benzamide], the IC50 in assay [1] worked out at 133 nM.

As to `Cc1nc(C#Cc2ccc(F)c(C(=O)Nc3ccc(F)cc3)c2)cs1` [ZD004, 2-fluoro-N-(4-fluorophenyl)-5-((2-methyl-thiZaol-4-yl)ethynyl)benzamide], the IC50 in assay [2] is > 100000 nM; in assay [1], 11 nM. Further, in assay [2], the mGluR5/mGluR1 is >9091.

Consider `Cc1nc(C#Cc2ccc(C)c(C(=O)Nc3ccc(F)cc3)c2)cs1` [ZD041, N-(4-fluorophenyl)-2-methyl-5-((2-methyl-thiazol-4-yl)ethynyl)benzamide], for which the IC50 in assay [1] turned out to be 108 nM.

On to `COC1CCC(C(=O)c2ccc3nc4c(cc3c2)CCCO4)CC1` (stereo not shown) [JNJ16259685, reference compound], for which the IC50 in assay [2] (positive control) was 91.2 nM.

Turning to `O=C(Nc1cccnc1)c1cc(C#Cc2ccccn2)ccc1F` [ZD042, 2-fluoro-5-(pyridin-2-ethynyl)-N-(pyridin-3-yl)benzamide], in assay [2], the IC50 is > 100000 nM and the mGluR5/mGluR1 was >5155. Also, the half-inhibitory concentration (IC50) in assay [1] was determined as 19.4 nM.

Regarding `Cc1nc(C#Cc2cccc(C(=O)N3CCc4ccccc4C3C)c2)cs1` (stereo not shown) [ZD011], the IC50 in assay [1] turned out to be 32.6 nM.

(Values after patent US10618900B2, “5-aromatic alkynyl substituted benzamide compound and preparation method, pharmaceutical composition, and use thereof” (SHANGHAI INSTITUTE OF MATERIA MEDICA, CHINESE ACADEMY OF …, priority 2015, dated 2020).)
